# Measured values from PMC12395388 (Regulatory toxicology and pharmacology : RTP, 2024).
# Like-named read-outs stand apart in the source and are kept apart here.
# Experiments:
# [1] = published by FDA as of September 4, 2024, ref FDA, 2024a; cited from earlier work
# [2] = PC1 most potent, PC5 least potent; ref FDA, 2024a; cited from earlier work
# [3] = ref Wogan et al., 1975, cited from earlier work
# [4] = tested on: Salmonella typhimurium TA1535; assay: Preincubation Ames test, strain TA1535; type: cell-based; details: for Ames response when tested as an aqueous suspension: 60 min preincubation, TA1535; for Effectiveness of time of preincubation for most effective S9: 30 vs 60 min; for Mutagenic response in TA1535: any activation condition and preincubation time; for Direct-acting mutagenicity in TA1535: no exogenous metabolic activation (no S9); for S9-mediated mutagenicity in TA1535: with S9 activation
# [5] = tested on: Ames tester strains; details: cited from earlier work; for Ames response (all S9-mediated except where noted): published/posted results, ref representative Ames references of Table 2
# [6] = tested on: Salmonella typhimurium TA100; assay: Preincubation Ames test, strain TA100; type: cell-based; details: for Effectiveness of time of preincubation for most effective S9: strain TA100, 30 vs 60 min; for S9-mediated mutagenicity in TA100: with S9 activation
# [7] = tested on: E. coli WP2 uvrA (pKM101); assay: Preincubation Ames test, strain WP2 uvrA; type: cell-based, Escherichia coli; details: for Effectiveness of time of preincubation for most effective S9: strain WP2 uvrA (pKM101), 30 vs 60 min; for Mutagenic response in WP2 uvrA (pKM101): any activation condition and preincubation time
# [8] = ref IARC (https://monographs.iarc.who.int/agents-classified-by-the-iarc/); cited from earlier work
# [9] = tested on: yeast; details: cited from earlier work
# [10] = tested on: Salmonella typhimurium TA1537; assay: Preincubation Ames test, strain TA1537
# [11] = tested on: CHO, V79, L5178Y/Tk+/−, TK6, HepaRG cells; details: cited from earlier work
# [12] = tested on: Drosophila; details: cited from earlier work; for Recombination in Drosophila: ref Vogel and Nivard, 1993
# [13] = tested on: Salmonella typhimurium tester strains TA98, TA100, TA1535, and TA1537, and Escherichia coli strain WP2 uvrA (pKM101); assay: Preincubation Ames test, five tester strains; type: cell-based; details: for Specificity for G:C or A:T target tester strains: G:C target: TA98, TA100, TA1535, TA1537, A:T target: WP2 uvrA (pKM101)
# [14] = tested on: E. coli WU3610; details: ref Elespuru and Lijinsky, 1976; cited from earlier work
# [15] = in vivo; cited from earlier work
# [16] = parent drug with nitrite; ref Ozhan and Alpertunga, 2003; cited from earlier work
# [17] = ref as given in Table 2 Notes (Kerklaan et al., 1981; Zeiger et al., 1972); cited from earlier work
# [18] = species as in value; ref as given in Table 2 Notes; cited from earlier work
# [19] = Solubility in Ames test vehicles; type: physicochemical
# [20] = listed as N-nitroso-methylphenylamine
# [21] = ref Larimer et al., 1980, Mehta and Von Borstel, 1984
# [22] = listed as 1-Methyl-4-nitrosopiperizine
# [23] = listed as 1-methyl-4-nitrosopiperizine
# [24] = cell lines as named in the value, ref as given in Table 2 Notes
smiles,measurement,setting,value
"Nc1nc2ncc(CN(N=O)c3ccc(C(=O)NC(CCC(=O)O)C(=O)O)cc3)nc2c(=O)[nH]1 (centres unmarked) [NDSRI-28, 2-[[4-[(2-Amino-4-oxo-3 H-pteridin-6-yl)methyl-nitrosoamino)benzoyl]amino]pentanedioic acid]",AI limit,[1],1500 ng/day
same,CPCA Potency Category (PC),[2],PC4
same,Lung tumors in neonatal mouse cancer bioassay,[3],"Weak positive for lung tumors in neonatal mouse assay ([Wogan et al., 1975])"
same,Lung tumors in neonatal mouse cancer bioassay,[3]; listed as N-nitroso-folic acid,induced lung tumors
same,Ames response when tested as an aqueous suspension,[4],d Weakly positive/equivocal when tested as an aqueous suspension: see text and Supplementary Material.
same,Ames response when tested as an aqueous suspension,[4]; listed as N-nitroso-folic acid,equivocal or weakly positive
same,Ames response (all S9-mediated except where noted),[5],Positive
"CCCCN(CCCC)N=O [SM-9, N,N-Dibutylnitrous amide]",Effectiveness of time of preincubation for most effective S9,[6],30min ≥60min
same,Effectiveness of time of preincubation for most effective S9,[4]; strain TA1535,60min = 30min
same,Ames response (all S9-mediated except where noted),[5],Positive
same,Effectiveness of time of preincubation for most effective S9,[7],60min ≥30min
same,IARC classification,[8],Group 2B
"CN(N=O)c1ccccc1 [SM-6, N-Methyl-N-phenylnitrous amide]",Mutagenicity/genotoxicity in yeast,[9],"Mutagenic/genotoxic in yeast, TK6, HepaRG cells"
same,Mutagenic response in TA1537,"[10]; any activation condition and preincubation time, listed as N-nitroso-methylphenylamine",positive
same,Effectiveness of time of preincubation for most effective S9,"[10]; strain TA1537, 30 vs 60 min",60min = 30min
same,Effectiveness of hamster vs. rat S9s for each positive strain,"[10]; strain TA1537, H = hamster liver S9, R = rat liver S9",H only
same,Mutagenic response in TA1535,[4]; [20],negative
same,Mutagenic response in TA1535,[4]; listed as NMPA,not positive
same,Mutagenic response in WP2 uvrA (pKM101),[7]; [20],positive
same,Mutagenic response in WP2 uvrA (pKM101),[7]; listed as NMPA,mutagenic
same,Effectiveness of time of preincubation for most effective S9,[7],60min = 30min
same,Mutagenicity/genotoxicity in mammalian cells in vitro,[11],"Mutagenic/genotoxic in yeast, TK6, HepaRG cells"
"O=NN(c1ccccc1)c1ccccc1 [SM-11, N,N-Diphenylnitrous amide]",IARC classification,[8],Group 3
"CN1CCN(N=O)CC1 [SM-4, 1-Methyl-4-nitrosopiperazine]",AI limit,[1],400 ng/day
same,Mutagenicity in Drosophila,"[12]; ref Nix et al., 1980","Mutagenic in yeast, Drosophila, V79 cells, host-mediated assay"
same,Recombination in Drosophila,[12],recombinogen in Drosophila
same,Direct-acting mutagenicity in yeast,"[9]; only summary results provided, ref Larimer et al., 1980",does not appear to be a direct-acting mutagen
same,Mutagenicity/genotoxicity in yeast,[9]; [21],"Mutagenic in yeast, Drosophila, V79 cells, host-mediated assay"
same,Specificity for G:C or A:T target tester strains,[13],positive only in G:C detecting strains
same,CPCA Potency Category (PC),[2],PC3
same,Effectiveness of time of preincubation for most effective S9,[6],60min = 30min
same,S9-mediated mutagenicity in TA100,[6]; [22],strong S9-mediated mutagen
same,S9-mediated mutagenicity in TA100,[6]; [23],strongly positive
same,Mutagenicity in E. coli WU3610,[14],not mutagenic in E. coli WU3610
same,Direct-acting mutagenicity in TA1535,[4],a Equivocal direct-acting mutagen in TA1535.
same,Direct-acting mutagenicity in TA1535,[4]; [22],weakly positive direct-acting mutagen in two of four assays
same,Direct-acting mutagenicity in TA1535,[4]; [23],classified as ‘equivocal’ as a direct-acting mutagen
same,Effectiveness of time of preincubation for most effective S9,[4]; strain TA1535,60min = 30min
same,S9-mediated mutagenicity in TA1535,[4]; [22],strong S9-mediated mutagen
same,S9-mediated mutagenicity in TA1535,[4]; [23],strongly positive
same,Ames response (all S9-mediated except where noted),[5],Positive
same,Ames response with human liver S9,"[5]; ref Sabadie et al., 1980",Ames positive with human liver S9
same,Mutagenicity/genotoxicity in mammalian cells in vitro,[11]; [24],"Mutagenic in yeast, Drosophila, V79 cells, host-mediated assay"
same,Direct-acting mutagenicity in V79 cells,"[11]; only summary results provided, ref Kuroki et al., 1977",does not appear to be a direct-acting mutagen
"CCOC(CN(CC(OCC)OCC)N=O)OCC [SM-12, N,N-Bis(2,2-diethoxyethyl)nitrous amide]",Specificity for G:C or A:T target tester strains,[13],positive only in G:C detecting strains
same,Mutagenic response in TA1535,[4],only positive strain
same,More effective %S9 in S9 mix of more effective S9 (H or R),"[4]; strain TA1535, 10% vs 30% S9 in the S9 mix",30% only
same,Effectiveness of time of preincubation for most effective S9,[4]; strain TA1535,60min = 30min
same,Effectiveness of hamster vs. rat S9s for each positive strain,"[4]; strain TA1535, H = hamster liver S9, R = rat liver S9",H only
same,Carcinogenicity in rats,[15],noncarcinogenic in rats
CNCCC(Oc1ccc(C(F)(F)F)cc1)c1ccccc1 (centres unmarked) [Fluoxetine],Genotoxicity under nitrosating conditions,[16],genotoxic under nitrosating conditions
"CN(C)N=O [SM-1, N,N-Dimethylnitrous amide]",AI limit,[1],96 ng/day
same,Recombination in Drosophila,[12],recombinogen in Drosophila
same,Mutagenicity in host-mediated assay,[17],Mutagenic
same,Effect of length of preincubation on positive responses,"[13]; 30 min vs 60 min, over all strains, listed as NDMA",benefited from a preincubation of 60 min compared with 30 min
same,Mutagenicity in TGR assay,[18],Mutagenic in mouse and rat TGR
same,Effectiveness of time of preincubation for most effective S9,[6],60min >30min
same,Effectiveness of time of preincubation for most effective S9,[4]; strain TA1535,60min >30min
same,Ames response (all S9-mediated except where noted),[5],Positive; preincubation more sensitive
same,Effectiveness of time of preincubation for most effective S9,[7],60min = 30min
same,Mutagenicity/genotoxicity in mammalian cells in vitro,[11]; [24],"mutagenic/genotoxic in CHO, V79, L5178Y/Tk^+/−, HepaRG cells"
same,IARC classification,[8],Group 2A
Fc1ccc([C@@H]2CCNC[C@H]2COc2ccc3c(c2)OCO3)cc1 [Paroxetine],Genotoxicity under nitrosating conditions,[16],"Paroxetine genotoxic under nitrosating conditions ([Ozhan and Alpertunga, 2003])"
"CN(CCCC(=O)O)N=O [SM-7, 4-[Methyl(nitroso)amino] butanoic acid]",AI limit,[1],1500 ng/day
same,Mutagenicity/genotoxicity in yeast,[9]; [21],"Mutagenic/genotoxic in yeast, TK6, HepaRG cells ([Mehta and Von Borstel, 1984]; [Li et al., 2022]; [Seo et al., 2023])"
same,CPCA Potency Category (PC),[2],PC4
same,Mutagenicity/genotoxicity in mammalian cells in vitro,[11]; [24],"Mutagenic/genotoxic in yeast, TK6, HepaRG cells ([Mehta and Von Borstel, 1984]; [Li et al., 2022]; [Seo et al., 2023])"
"CCN(CC)N=O [SM-2, N,N-Diethylnitrous amide]",AI limit,[1],26.5 ng/day
same,Recombination in Drosophila,[12],recombinogen in Drosophila
same,Mutagenicity in host-mediated assay,[17],Mutagenic
same,Mutagenicity in TGR assay,[18],"Mutagenic in rat and mouse TGR, error-corrected sequencing"
same,Ames response (all S9-mediated except where noted),[5],Positive; preincubation more sensitive
same,Mutagenicity/genotoxicity in mammalian cells in vitro,[11]; [24],"mutagenic/genotoxic in CHO, L5178Y/Tk^+/−, V79, TK6, HepaRG cells"
"O=NN1CCN(c2cc3c(cc2F)c(=O)c(C(=O)O)cn3C2CC2)CC1 [NDSRI-24, 1-Cyclopropyl-6-fluoro-7-(4-nitrosopiperazin-1-yl)-4-oxoquinoline-3-carboxylic acid]",Solubility in test vehicles,[19],poorly soluble in all vehicles
